Measured values reported in patent US20240207302A1, “ANTIVIRAL COMPOUNDS, METHODS FOR THE MANUFACTURING OF COMPOUNDS, ANTIVIRAL PHARMACEUTICAL COMPOSITION, USE OF THE COMPOUNDS AND METHOD FOR THE ORAL TREATMENT OF CORONAVIRUS INFECTION AND RELATED DISEASES THEREOF” (priority 2021, published 2024).
Marks after values point to notes of the source that are not given here.

Assay: Repeated dose 28-day oral toxicity study
Format: in vivo, mice
Procedure: FIG. 10A and 10B. […] Body weight gain in weeks (A) in males and (B) in females by 4 weeks. […] Body weight was measured once a week.
These experiments were conducted in compliance with the GLP principles. Morbidity, mortality, body weight in male (FIG. 10A) and female (FIG. 10B), food consumption as well as general and detailed clinical signs were evaluated. In the last week, urine samples from all animals were collected for analysis. At necropsy, blood samples were collected for hematological, biochemical and coagulation analyses, followed by tissue and organ collection for macroscopic and histopathological analyses.

[1] = female mice, 10 mg/kg oral once daily for 28 days
[2] = female mice, 80 mg/kg oral once daily for 28 days
[3] = female mice, 250 mg/kg oral once daily for 28 days
[4] = female mice, 10 mg/kg daily, 28 days
[5] = female mice, 80 mg/kg daily, 28 days
[6] = female mice, 250 mg/kg daily, 28 days
[7] = male mice, 10 mg/kg daily, 28 days
[8] = male mice, 80 mg/kg daily, 28 days
[9] = male mice, 250 mg/kg daily, 28 days

For c1coc(CNc2ncnc3[nH]cnc23)c1 [MB-905, kinetin], the NOAEL at 28 days (both sexes, CD1, mouse, in vivo, mice, oral, 28-day study) was 80 mg/kg, the “ALB (Albumin), Mean” value [1] was 2.67 g/dL and the “ALT (Alanine aminotransferase), Mean” value [1] was 43.72 U/L. The “AST (Aspartate Aminotransferase), Mean” value [1] was 91.88 U/L, the “BT (Total Bilirubin), Mean” value [1] was 0.39 mg/dL and the “CA (Calcium), Mean” value [1] was 9.77 mg/dL. The “CRE (Creatinine), Mean” value [1] was 0.29 mg/dL, the “CT (Total cholesterol), Mean” value [1] was 98.17 mg/dL and the “FA (Alkaline phosphatase), Mean” value [1] was 108.75 U/L. The “GGT (Gamma-glutamyltransferase), Mean” value [1] was 0.00 U/L, the “GLUCOSE, Mean” value [1] was 118.56 mg/dL and the “P (Phosphorus), Mean” value [1] was 4.69 mg/dL. The “PT (Total protein), Mean” value [1] was 5.84 g/dL, the “TRI (Triglycerides), Mean” value [1] was 62.00 mg/dL and the “UREIA, Mean” value [1] was 54.93 mg/dL. The “ALB (Albumin), Mean” value [2] was 2.91 g/dL, the “ALT (Alanine aminotransferase), Mean” value [2] was 52.50 U/L and the “AST (Aspartate Aminotransferase), Mean” value [2] was 119.73 U/L. The “BT (Total Bilirubin), Mean” value [2] was 0.41 mg/dL, the “CA (Calcium), Mean” value [2] was 8.34 mg/dL and the “CRE (Creatinine), Mean” value [2] was 0.25 mg/dL. For the same compound, the “CT (Total cholesterol), Mean” value [2] was 119.86 mg/dL, the “FA (Alkaline phosphatase), Mean” value [2] was 77.20 U/L and the “GGT (Gamma-glutamyltransferase), Mean” value [2] was 0.00 U/L. The “GLUCOSE, Mean” value [2] was 138.04 mg/dL, the “P (Phosphorus), Mean” value [2] was 5.47 mg/dL and the “PT (Total protein), Mean” value [2] was 5.99 g/dL. For the same compound, the “TRI (Triglycerides), Mean” value [2] was 92.90 mg/dL, the “UREIA, Mean” value [2] was 44.12 mg/dL and the “ALB (Albumin), Mean” value [3] was 3.29 g/dL. The “ALT (Alanine aminotransferase), Mean” value [3] was 44.84 U/L, the “AST (Aspartate Aminotransferase), Mean” value [3] was 127.67 U/L and the “BT (Total Bilirubin), Mean” value [3] was 0.34 mg/dL. For the same compound, the “CA (Calcium), Mean” value [3] was 10.26 mg/dL, the “CRE (Creatinine), Mean” value [3] was 0.30 mg/dL and the “CT (Total cholesterol), Mean” value [3] was 126.67 mg/dL. For the same compound, the “FA (Alkaline phosphatase), Mean” value [3] was 80.40 U/L, the “GGT (Gamma-glutamyltransferase), Mean” value [3] was 0.20 U/L and the “GLUCOSE, Mean” value [3] was 135.84 mg/dL. The “P (Phosphorus), Mean” value [3] was 5.44 mg/dL, the “PT (Total protein), Mean” value [3] was 6.79 g/dL and the “TRI (Triglycerides), Mean” value [3] was 108.33 mg/dL. For the same compound, the “UREIA, Mean” value [3] was 73.50 mg/dL, the HCT [4] was 40.60% and the HGB [4] was 13.58 g/dL. The MCH [4] was 17.51 pg, the MCHC [4] was 31.74 g/dL and the MCV [4] was 52.32 fL. The PLT [4] was 1.07322e+06 µL⁻¹, the RBC [4] was 7.76e+06 µL⁻¹ and the W-LCR [4] was 36.41%. The W-MCR [4] was 5.03%, the W-SCR [4] was 57.60% and the WBC [4] was 1700 µL⁻¹. For the same compound, the HCT [5] was 39.78%, the HGB [5] was 13.31 g/dL and the MCH [5] was 17.50 pg. For the same compound, the MCHC [5] was 33.47 g/dL, the MCV [5] was 52.32 fL and the PLT [5] was 918000 µL⁻¹. The RBC [5] was 7.61e+06 µL⁻¹, the W-LCR [5] was 21.77% and the W-MCR [5] was 2.77%. The W-SCR [5] was 74.94 * %, the WBC [5] was 3590 µL⁻¹ and the HCT [6] was 40.70%. The HGB [6] was 13.27 g/dL, the MCH [6] was 17.46 pg and the MCHC [6] was 33.03 g/dL. For the same compound, the MCV [6] was 52.80 fL, the PLT [6] was 780330 µL⁻¹ and the RBC [6] was 7.61e+06 µL⁻¹. The W-LCR [6] was 22.91%, the W-MCR [6] was 3.10% and the W-SCR [6] was 73.06%. The WBC [6] was 4.88* ×10^3/μL, the ALT [7] was 43.99 U/L and the AST [7] was 105.30 U/L. The BT [7] was 0.67 mg/dL, the CA [7] was 9.91 mg/dL and the CRE [7] was 0.37 mg/dL. For the same compound, the CT [7] was 137.00 mg/dL, the FA [7] was 103.67 U/L and the GGT [7] was 2.33 U/L. It also gave a GLUCOSE [7] of 127.41 mg/dL, an HCT [7] of 38.33% and an HGB [7] of 12.51 g/dL. For the same compound, the MCH [7] was 17.12 pg, the MCHC [7] was 32.69 g/dL and the MCV [7] was 52.46 fL. For the same compound, the PLT [7] was 971900 µL⁻¹, the PT [7] was 5.56 g/dL and the RBC [7] was 7.3e+06 µL⁻¹. For the same compound, the TRI [7] was 94.50 mg/dL, the UREIA [7] was 60.48 mg/dL and the W-LCR [7] was 40.81 * %. For the same compound, the W-MCR [7] was 5.41%, the W-SCR [7] was 51.88 * % and the WBC [7] was 1610 µL⁻¹. The ALT [8] was 69.54 U/L, the AST [8] was 134.48 U/L and the BT [8] was 0.25 mg/dL. The CA [8] was 9.76 mg/dL, the CRE [8] was 0.28 mg/dL and the CT [8] was 154.56 mg/dL. For the same compound, the FA [8] was 69.67 U/L, the GGT [8] was 0.00 U/L and the GLUCOSE [8] was 129.24 mg/dL. For the same compound, the HCT [8] was 38.59%, the HGB [8] was 12.64 g/dL and the MCH [8] was 17.34 pg. The MCHC [8] was 32.76 g/dL, the MCV [8] was 53.00 fL and the PLT [8] was 1.03444e+06 µL⁻¹. It also gave a PT [8] of 5.74 g/dL, an RBC [8] of 7.28e+06 µL⁻¹ and a TRI [8] of 116.7 mg/dL. The UREIA [8] was 30.02 * mg/dL, the W-LCR [8] was 16.37 * % and the W-MCR [8] was 3.36 * %. The W-SCR [8] was 79.52 * %, the WBC [8] was 4700 µL⁻¹ and the ALT [9] was 57.17 U/L. For the same compound, the AST [9] was 124.78 U/L, the BT [9] was 0.43 mg/dL and the CA [9] was 10.38 mg/dL. The CRE [9] was 0.31 mg/dL, the CT [9] was 183.56 mg/dL and the FA [9] was 85.88 U/L. The GGT [9] was 0.50 U/L, the GLUCOSE [9] was 105.23 mg/dL and the HCT [9] was 40.41%. It also gave an HGB [9] of 13.26 g/dL, an MCH [9] of 17.03 pg and an MCHC [9] of 32.80 g/dL. The MCV [9] was 51.91 fL, the PLT [9] was 1.05633e+06 µL⁻¹ and the PT [9] was 5.22 g/dL. The RBC [9] was 7.79e+06 µL⁻¹, the TRI [9] was 84.90 mg/dL and the UREIA [9] was 74.16 mg/dL. The W-LCR [9] was 20.89 * %, the W-MCR [9] was 4.17% and the W-SCR [9] was 74.40* %. For the same compound, the WBC [9] was 4110 µL⁻¹, the “histopathology, kidneys” value (mice, both sexes, 250 mg/kg) was “areas of basophilic proximal tubules and tubular dilatation” and the ophthalmological health (mice, either sex, 250 mg/kg) was “No changes”. For the same compound, the “biochemical and hematological parameters” value (mice, male and female, 28 days, main groups) was “slight changes”, the “histopathology, kidneys” value (mice, 10 mg/kg and 80 mg/kg, recovery group) was “not observed” and the “macroscopic evaluation at necropsy” value (mice, 28 days) was “did not reveal significant changes”. For the same compound, the “urine parameters (volume, specific gravity, pH, protein)” value (mice, 28 days, main groups) was “No significant changes”.
